# Data reported in PMC8659243, “Design, Synthesis and Tumour-Selective Toxicity of Novel 1-[3-{3,5-Bis(benzylidene)-4-oxo-1-piperidino}-3-oxopropyl]-4-piperidone Oximes and Related Quaternary Ammonium Salts” (Molecules, 2021).
# Structures can show the parent of a compound that is named as a salt.
# Legend:
# KM12 cells = assay: NCI in vitro screen, colon cancer KM12; type: cell-based; details: Homo sapiens
# Description: (§1) One particular reference drug is 5-fluorouracil, which is used in treating colon cancers.
# SR cells = assay: NCI in vitro screen, leukemia SR; type: cell-based; details: Homo sapiens
# Description: (§2) In view of the encouraging result with CEM leukemic cells, consideration was given to an assessment in the NCI in vitro screening program. The oximes, but not the quaternary ammonium salts, were accepted for bioevaluation. Examination of the mean graphs confirms the sensitivity of leukemic cells to these compounds.
# HCC-2998 cells = assay: NCI in vitro screen, colon cancer HCC-2998; type: cell-based; details: Homo sapiens
# Description: as §1
# [1] = system: Ca9-22, HSC-2 and HSC-4 cells; assay: Average over Ca9-22, HSC-2 and HSC-4 neoplastic cells; type: cell-based, human; details: for CC50: Homo sapiens, average of Ca9-22, HSC-2 and HSC-4, read-out: Average CC50; for Average SI: average of SI for Ca9-22, HSC-2 and HSC-4
# Method: In order to assess whether the compounds in series 3 and 4 are more toxic to neoplasms than non-malignant cells, selective index (SI) figures were calculated. In the in vivo situation, a tumour is surrounded by a number of non-malignant cells.
# In order to identify the most promising lead compounds in terms of both cytotoxic potencies and favourable SI values, potency–selectivity expression (PSE) values were computed. […] Outstanding results may be noted for four compounds that have PSE values in excess of 100,000 namely 3d, 4c–e. […] However, the relative SI/PSE distribution patterns between series 3 and 4 (from a to h) are nearly superimposable with each other (Figure 3). […] It has been reported that 3,5-bis(3-iodo-5-methoxy-4-propoxybenzylidene)-N-acetylpiperidin-4-one inhibited tubulin and destabilization of microtubules, while 3,5-bis(3,4,5-trimethoxybenzylidene)-N-benzoylpiperidin-4-one destabilizes the microtubules. Thus, it remained to investigate whether compound 4d acts as an inhibitor of the microtubule.
# (§3) A literature procedure was followed when the compounds in series 3 and 4 were evaluated against three human oral squamous cell carcinoma cell lines Ca9-22 (RCB-1976), HSC-2 (RCB1945), HSC-4 (RCB1902) (purchased from RIKEN Cell Bank, Tukuba, Japan) and three human normal oral cells, gingival fibroblast (HGF), periodontal ligament fibroblast (HPLF) and pulp cells (HPC) (established according to the guideline of the intramural ethic committee, A0808) except the duration of incubation was increased from 24 h to 48 h. In brief, various concentrations of the compounds were added to the DMEM media, which was supplemented by 10% heat-inactivated fetal bovine serum. Incubation was undertaken at 37 °C. At the completion of the experiment, cell viability was determined by the MTT method.
# Molt-4 cells = assay: NCI in vitro screen, leukemia Molt-4; type: cell-based; details: Homo sapiens
# Description: as §2
# HSC-2 cells = assay: Cytotoxicity against HSC-2 cells, MTT method, 48 h; type: cell-based, human; details: for CC50: Homo sapiens, HSC-2, concentration required to kill 50% of the cells, 48 h, MTT; for SI HSC-2: average CC50 towards HGF, HPLF, HPC divided by CC50 against HSC-2
# Method: as §3
# [2] = Cytotoxicity against non-malignant HPC cells, MTT method, 48 h; type: cell-based; details: human, pulp cells (HPC)
# Method: as §3
# [3] = system: CEM T-lymphoblastic leukemia cells; assay: Cytotoxicity against CEM cells, MTT method, 24 h; type: cell-based; details: Homo sapiens, CCRF-CEM, concentration required to inhibit cell growth by 50%
# Method: The method used for the evaluation of various compounds against human CEM cells has been reported previously. In brief, cells were grown in RPMI-1640 medium supplemented with 10% heat-inactivated fetal bovine serum. Different concentrations of compounds were added to the media, and after 24 h incubation, cytotoxicity was measured by the MTT method.
# HSC-4 cells = assay: Cytotoxicity against HSC-4 cells, MTT method, 48 h; type: cell-based, human; details: for CC50: Homo sapiens, HSC-4, concentration required to kill 50% of the cells, 48 h, MTT, read-out: CC50 HSC-4; for SI HSC-4: average CC50 towards HGF, HPLF, HPC divided by CC50 against HSC-4
# Method: as §3
# HT29 cells = assay: NCI in vitro screen, colon cancer HT29; type: cell-based; details: Homo sapiens, HT-29
# Description: as §1
# RPMI-8226 cells = assay: NCI in vitro screen, leukemia RPMI-8226; type: cell-based; details: Homo sapiens
# Description: as §2
# Ca9-22 cells = assay: Cytotoxicity against Ca9-22 cells, MTT method, 48 h; type: cell-based, human; details: for CC50: Homo sapiens, Ca9-22, concentration required to kill 50% of the cells, 48 h, MTT, read-out: CC50 Ca9-22; for SI Ca9-22: average CC50 towards HGF, HPLF, HPC divided by CC50 against Ca9-22
# Method: as §3
# colon cancer cells = assay: NCI in vitro screen, average of colon cancer cells; type: cell-based; details: Homo sapiens
# Description: as §1
# [4] = Average over HGF, HPLF and HPC non-malignant cells; type: cell-based; details: human, HPLF and HPC non-malignant cells (average of the three)
# Method: as §3
# HCT-15 cells = assay: NCI in vitro screen, colon cancer HCT-15; type: cell-based; details: Homo sapiens
# Description: as §1
# HL-60 (TB) cells = assay: NCI in vitro screen, leukemia HL-60 (TB); type: cell-based; details: Homo sapiens
# Description: as §2
# [5] = Cytotoxicity against non-malignant HPLF cells, MTT method, 48 h; type: cell-based; details: human, periodontal ligament fibroblasts (HPLF)
# Method: as §3
# [6] = Cytotoxicity against non-malignant HGF cells, MTT method, 48 h; type: cell-based; details: human, gingival fibroblasts (HGF)
# Method: as §3
# K-562 cells = assay: NCI in vitro screen, leukemia K-562; type: cell-based; details: Homo sapiens, K562
# Description: as §2
# leukemia cells = assay: NCI in vitro screen, average of leukemia cells; type: cell-based; details: Homo sapiens
# Description: as §2
# HCT-116 cells = assay: NCI in vitro screen, colon cancer HCT-116; type: cell-based; details: Homo sapiens
# Description: as §1
# All Cell Lines = assay: NCI in vitro screen, all cell lines; type: cell-based; details: Homo sapiens
# Description: as §1
# Colo205 cells = assay: NCI in vitro screen, colon cancer Colo205; type: cell-based; details: Homo sapiens, COLO 205
# Description: as §1
# SW-620 cells = assay: NCI in vitro screen, colon cancer SW-620; type: cell-based; details: Homo sapiens
# Description: as §1
# [7] = Stability by 1H NMR in 9:1 deuterated dimethylsulfoxide and deuterium oxide; type: physicochemical; details: 37 °C
Structure (SMILES),IC50 (KM12 cells) [nM],IC50 (SR cells) [nM],IC50 (HCC-2998 cells) [nM],CC50 [1] [nM],Average SI [1],IC50 (Molt-4 cells) [nM],CC50 (HSC-2 cells) [nM],SI HSC-2 (HSC-2 cells),CC50 at 48 h [2] [nM],IC50 [3] [nM],CC50 (HSC-4 cells) [nM],SI HSC-4 (HSC-4 cells),IC50 (HT29 cells) [nM],IC50 (RPMI-8226 cells) [nM],CC50 (Ca9-22 cells) [nM],SI Ca9-22 (Ca9-22 cells),IC50 (colon cancer cells) [nM],CC50 at 48 h [4] [nM],IC50 (HCT-15 cells) [nM],IC50 (HL-60 (TB) cells) [nM],also measured
"O=C1/C(=C/c2ccc([N+](=O)[O-])cc2)CN(C(=O)CCN2CCC(=NO)CC2)C/C1=C\c1ccc([N+](=O)[O-])cc1 [Compound 3e, (3~{E},5~{E})-1-[3-(4-hydroximino-1-piperidyl)propanoyl]-3,5-bis[(4-nitrophenyl)methylene]piperidin-4-one]",290,100,1170,80,57.5,400,120 ± 90,27.3,5070 ± 210,11600 ± 310,90 ± 20,36.3,330,300,30,109,460,3270,360,1550,CC50 at 48 h [5]: 3060 ± 160 nM; CC50 at 48 h [6]: 1670 ± 310 nM; IC50 (K-562 cells): 280 nM; IC50 (leukemia cells): 500 nM; IC50 (HCT-116 cells): 490 nM; IC50 (All Cell Lines): 1790 nM; IC50 (Colo205 cells): 400 nM; IC50 (SW-620 cells): 200 nM
"O=C1/C(=C/c2ccccc2)CN(C(=O)CCN2CCC(=NO)CC2)C/C1=C\c1ccccc1 (as salt: hydrochloride) [Compound 3a, (3~{E},5~{E})-3,5-bis-benzylidine-1-[3-(4-hydroximino-1-piperidyl)propanoyl]piperidin-4-one hydrochloride]",,,,,,,,,,,,,,,,,,,,,melting point: 172.3 °C
"COc1ccc(/C=C2\CN(C(=O)CCN3CCC(=NO)CC3)C/C(=C\c3ccc(OC)cc3)C2=O)cc1 [Compound 3g, (3~{E},5~{E})-3,5-bis[(4-methoxyphenyl)methylene]-1-[3-(4-hydroximino-1-piperidyl)propanoyl]piperidin-4-one hydrochloride]",1740,620,1860,930,13.9,2950,1560 ± 550,6.92,13600 ± 600,4350 ± 200,650 ± 20,16.6,2040,650,590 ± 60,18.3,1840,10800,2140,2820,CC50 at 48 h [5]: 12100 ± 1790 nM; CC50 at 48 h [6]: 6630 ± 60 nM; IC50 (K-562 cells): 1200 nM; IC50 (leukemia cells): 1880 nM; IC50 (HCT-116 cells): 1740 nM; IC50 (All Cell Lines): 1280 nM; IC50 (Colo205 cells): 2040 nM; IC50 (SW-620 cells): 1380 nM
"O=C1/C(=C/c2ccccc2)CN(C(=O)CCN2CCC(=NO)CC2)C/C1=C\c1ccccc1 [Compound 3a, (3~{E},5~{E})-3,5-bis-benzylidine-1-[3-(4-hydroximino-1-piperidyl)propanoyl]piperidin-4-one hydrochloride]",660,330,1740,660,18.1,690,890 ± 60,12.4,11500 ± 2570,5390 ± 260,440 ± 160,25.0,1200,320,650 ± 70,16.9,1100,11000,1380,2600,stability: 1H NMR spectra in dissolution and after 48 h incubation [7]: identical; CC50 at 48 h [5]: 14300 ± 3790 nM; CC50 at 48 h [6]: 7110 ± 470 nM; IC50 (K-562 cells): 400 nM; IC50 (leukemia cells): 850 nM; IC50 (HCT-116 cells): 680 nM; IC50 (All Cell Lines): 1510 nM; IC50 (Colo205 cells): 1700 nM; IC50 (SW-620 cells): 320 nM
"O=C1/C(=C/c2ccc(F)cc2)CN(C(=O)CCN2CCC(=NO)CC2)C/C1=C\c1ccc(F)cc1 [Compound 3b, (3~{E},5~{E})-3,5-bis[(4-fluorophenyl)methylene]-1-[3-(4-hydroximino-1-piperidyl)propanoyl]piperidin-4-one hydrochloride]",230,250,1410,430,31.5,330,730 ± 130,14.3,14200 ± 2000,1780 ± 210,200 ± 80,52.0,320,290,370 ± 190,28.1,610,10400,370,1550,CC50 at 48 h [5]: 9730 ± 230 nM; CC50 at 48 h [6]: 7120 ± 40 nM; IC50 (K-562 cells): 350 nM; IC50 (leukemia cells): 520 nM; IC50 (HCT-116 cells): 220 nM; IC50 (All Cell Lines): 1150 nM; IC50 (Colo205 cells): 1500 nM; IC50 (SW-620 cells): 200 nM
"O=C1/C(=C/c2ccc(Cl)cc2)CN(C(=O)CCN2CCC(=NO)CC2)C/C1=C\c1ccc(Cl)cc1 [Compound 3c, (3~{E},5~{E})-3,5-bis[(4-chlorophenyl)methylene]-1-[3-(4-hydroximino-1-piperidyl)propanoyl]piperidin-4-one hydrochloride]",220,40,310,320,69.5,280,660 ± 140,20.5,26100 ± 35900,15900 ± 940,180 ± 30,75.0,300,160,120 ± 80,113,260,13500,270,560,CC50 at 48 h [5]: 8030 ± 60 nM; CC50 at 48 h [6]: 6400 ± 350 nM; IC50 (K-562 cells): 160 nM; IC50 (leukemia cells): 240 nM; IC50 (HCT-116 cells): 210 nM; IC50 (All Cell Lines): 1620 nM; IC50 (Colo205 cells): 350 nM; IC50 (SW-620 cells): 150 nM
"O=C1/C(=C/c2ccc(Cl)c(Cl)c2)CN(C(=O)CCN2CCC(=NO)CC2)C/C1=C\c1ccc(Cl)c(Cl)c1 [Compound 3d, (3~{E},5~{E})-3,5-bis[(3,4-dichlorophenyl)methylene]-1-[3-(4-hydroximino-1-piperidyl)propanoyl]piperidin-4-one hydrochloride]",250,100,360,60,89.1,320,100 ± 20,35.9,4970 ± 890,8490 ± 340,70,51.3,320,230,20 ± 10,180,310,3590,270,1000,CC50 at 48 h [5]: 3900 ± 1420 nM; CC50 at 48 h [6]: 1910 ± 220 nM; IC50 (K-562 cells): 250 nM; IC50 (leukemia cells): 370 nM; IC50 (HCT-116 cells): 320 nM; IC50 (All Cell Lines): 1300 nM; IC50 (Colo205 cells): 390 nM; IC50 (SW-620 cells): 230 nM
